Measurements as given in the NIST ThermoML archive (doi:10.1016/j.fluid.2017.01.019).

Assay: xn = mol fraction of the nth substance listed
Conditions: 100 kPa, Liquid; for viscosity: Falling or rolling sphere viscometry; for speed of sound: Frequency=3 MHz, Sing-around technique in a fixed-path interferometer; for mass density: Vibrating tube method

CCCCO [butan-1-ol] + CO
Conditions | mass density [kg/m3] | speed of sound [m/s] | viscosity [mPa·s]
293.15 K, x1 = 0.0997 | – | – | 0.7
293.15 K, x1 = 0.1994 | – | – | 0.83
293.15 K, x1 = 0.3068 | – | – | 0.99
293.15 K, x1 = 0.3991 | – | – | 1.15
293.15 K, x1 = 0.5082 | – | – | 1.36
293.15 K, x1 = 0.604 | – | – | 1.57
293.15 K, x1 = 0.6992 | – | – | 1.77
293.15 K, x1 = 0.7994 | – | – | 2.05
293.15 K, x1 = 0.9038 | – | – | 2.34
293.15 K, x1 = 1 | – | – | 2.61
298.15 K, x1 = 0.0997 | 791.339 | 1130.6 | –
298.15 K, x1 = 0.1994 | 794.665 | 1150 | –
298.15 K, x1 = 0.3068 | 797.503 | 1169.2 | –
298.15 K, x1 = 0.3991 | 799.477 | 1183.5 | –
298.15 K, x1 = 0.5082 | 801.494 | 1197 | –
298.15 K, x1 = 0.604 | 802.958 | 1210.3 | –
298.15 K, x1 = 0.6992 | 804.13 | 1218 | –
298.15 K, x1 = 0.7994 | 805.057 | 1228.8 | –
298.15 K, x1 = 0.9038 | 805.689 | 1235.8 | –
298.15 K, x1 = 1 | 806.27 | 1241.1 | –
303.15 K, x1 = 0.0997 | 786.81 | 1114.2 | 0.65
303.15 K, x1 = 0.1994 | 790.266 | 1133.6 | 0.76
303.15 K, x1 = 0.3068 | 793.243 | 1152.4 | 0.91
303.15 K, x1 = 0.3991 | 795.305 | 1166.7 | 1.05
303.15 K, x1 = 0.5082 | 797.42 | 1180.4 | 1.23
303.15 K, x1 = 0.604 | 798.956 | 1193.7 | 1.41
303.15 K, x1 = 0.6992 | 800.184 | 1201.4 | 1.59
303.15 K, x1 = 0.7994 | 801.155 | 1212.1 | 1.83
303.15 K, x1 = 0.9038 | 801.817 | 1219.1 | 2.08
303.15 K, x1 = 1 | 802.42 | 1224.3 | 2.31
308.15 K, x1 = 0.0997 | 782.263 | 1097.9 | 0.6
308.15 K, x1 = 0.1994 | 785.837 | 1117.3 | 0.71
308.15 K, x1 = 0.3068 | 788.95 | 1136.4 | 0.84
308.15 K, x1 = 0.3991 | 791.101 | 1150.6 | 0.96
308.15 K, x1 = 0.5082 | 793.315 | 1163.9 | 1.12
308.15 K, x1 = 0.604 | 794.922 | 1177.2 | 1.28
308.15 K, x1 = 0.6992 | 796.169 | 1184.8 | 1.43
308.15 K, x1 = 0.7994 | 797.222 | 1195.5 | 1.64
308.15 K, x1 = 0.9038 | 797.914 | 1202.4 | 1.86
308.15 K, x1 = 1 | 798.536 | 1207.5 | 2.07
313.15 K, x1 = 0.0997 | 777.683 | 1081.8 | 0.56
313.15 K, x1 = 0.1994 | 781.397 | 1101 | 0.66
313.15 K, x1 = 0.3068 | 784.606 | 1119.8 | 0.77
313.15 K, x1 = 0.3991 | 786.863 | 1134.2 | 0.88
313.15 K, x1 = 0.5082 | 789.167 | 1147.5 | 1.02
313.15 K, x1 = 0.604 | 790.889 | 1160.7 | 1.18
313.15 K, x1 = 0.6992 | 792.224 | 1168.3 | 1.29
313.15 K, x1 = 0.7994 | 793.273 | 1178.9 | 1.47
313.15 K, x1 = 0.9038 | 793.979 | 1185.7 | 1.66
313.15 K, x1 = 1 | 794.617 | 1190.9 | 1.85
318.15 K, x1 = 0.0997 | 773.076 | 1065.7 | 0.53
318.15 K, x1 = 0.1994 | 776.932 | 1084.9 | 0.61
318.15 K, x1 = 0.3068 | 780.263 | 1103.6 | 0.71
318.15 K, x1 = 0.3991 | 782.592 | 1118 | 0.81
318.15 K, x1 = 0.5082 | 784.996 | 1131.2 | 0.93
318.15 K, x1 = 0.604 | 786.847 | 1144.4 | 1.05
318.15 K, x1 = 0.6992 | 788.248 | 1151.8 | 1.17
318.15 K, x1 = 0.7994 | 789.325 | 1162.4 | 1.33
318.15 K, x1 = 0.9038 | 789.993 | 1169.2 | 1.49
318.15 K, x1 = 1 | 790.655 | 1174.2 | 1.66
323.15 K, x1 = 0.0997 | 768.447 | 1049.7 | 0.51
323.15 K, x1 = 0.1994 | 772.448 | 1068.9 | 0.58
323.15 K, x1 = 0.3068 | 775.921 | 1087.5 | 0.66
323.15 K, x1 = 0.3991 | 778.306 | 1101.8 | 0.75
323.15 K, x1 = 0.5082 | 780.936 | 1115 | 0.86
323.15 K, x1 = 0.604 | 782.762 | 1128 | 0.96
323.15 K, x1 = 0.6992 | 784.201 | 1135.4 | 1.06
323.15 K, x1 = 0.7994 | 785.373 | 1145.9 | 1.2
323.15 K, x1 = 0.9038 | 785.98 | 1152.6 | 1.35
323.15 K, x1 = 1 | 786.645 | 1157.6 | 1.5
